Test [1] has as its target T1, α-amylase from porcine pancreas (Sus scrofa, UniProt P00690).
T1 construct: A saline suspension of α-amylase from porcine pancreas; purchased Sigma Aldrich (Steinheim, Germany) Lot #SLBN9170V (catalogue number not given); host or cells: porcine pancreas (tissue-derived)
T1 sequence (P00690 16-511): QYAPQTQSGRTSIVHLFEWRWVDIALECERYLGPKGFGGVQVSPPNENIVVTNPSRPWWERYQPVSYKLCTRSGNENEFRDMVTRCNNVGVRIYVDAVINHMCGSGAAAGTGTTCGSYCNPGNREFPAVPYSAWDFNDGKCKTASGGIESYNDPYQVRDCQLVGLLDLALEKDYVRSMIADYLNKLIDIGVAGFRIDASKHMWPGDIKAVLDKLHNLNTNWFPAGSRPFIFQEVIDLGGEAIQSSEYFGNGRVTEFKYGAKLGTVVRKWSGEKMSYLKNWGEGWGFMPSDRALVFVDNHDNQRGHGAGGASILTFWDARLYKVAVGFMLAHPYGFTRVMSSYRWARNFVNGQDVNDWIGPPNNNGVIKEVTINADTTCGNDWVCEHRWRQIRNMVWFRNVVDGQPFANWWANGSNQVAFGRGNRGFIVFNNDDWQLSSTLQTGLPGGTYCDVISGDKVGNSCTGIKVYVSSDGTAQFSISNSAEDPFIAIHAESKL
The test is described as follows: α-amylase enzyme activity assay, GalG2CNP conversion, UV/Vis detection of CNP at 405 nm. Format: biochemical. The conditions noted are these: for conversion rate (v0) / inhibitory effect in UV/Vis assay: black carrot anthocyanins, 12.5−50 µM, artifact, simulated accelerated conversion; for Ki: global fit, 12.5, 25, 50 µM, UV/Vis artifact. As to the method: The enzyme activity assay, […], was established by Homoki and co-workers and already used by the authors to evaluate the inhibitory strength of different phenolic structures. To enable the evaluation of the result obtained in the present study compared to the non-anthocyanin phenolics investigated previously, the assay conditions were identical. In short, to 12 different GalG2CNP concentrations ([S] = 0−2000 µM) in MES^+ buffer, inhibitor [I] and 50 µL enzyme solution (c = 1.51 units/~100 pM, on the basis of supplier information) were mixed in a microtiter plate (Greiner BioOne, Frickenhausen, Germany; transparent, F-bottom). For blanks, the enzyme solution was substituted with MES^+ buffer. The final volume per well was 250 µL. To quantify the reaction product, a linear calibration with eight different CNP concentrations in the range of 0−35 µM was performed for each plate. Dilutions of the anthocyanin stock solutions (0.1% HCl) were equilibrated at pH 6.1 for one hour. Final inhibitor concentrations were limited due to its strong absorption at 405 nm to 12.5, 25, and 50 µM. For each anthocyanin structure, the assay was conducted on two to three different days with freshly prepared stocks of substrate, enzyme, and inhibitor.
In addition to the Michaelis Menten constant (Km) and the maximal conversion rate (vmax) values (Table S1), inhibition constants (Kic, Kiu) were calculated by fitting the data by two approaches: (i) According to the mixed inhibition equation (Equation (4)) or competitive inhibition equation (Equation (5)), applying an optimal global fit containing data from all inhibitor concentrations including the control ([I] = 0 µM); and (ii) by an independent fit according to the Michaelis Menten equation (Equation (6)), providing the apparent values Km^app and Vmax^app (Table S2) for each inhibitor concentration, which were then used to calculate the inhibition constants (Equations (7) and (8)). (4) v0= vmax/Km/[S] · (1+[I]/Kic)+(1+[I]/Kiu), (5) v0=vmax/Km/[S] · ( 1+[I]/Kic)+1, (6) v0=vmax · [S]/Km+[S], (7) Kic=vmax^app/Km^app · [I]/vmax/Km−vmax^app/Km^app, (8) Kiu=vmax^app · [I]/vmax− vmax^app.
The IC50 values of the different anthocyanins were derived from the inhibition constants for different substrate concentrations by the Cheng−Prusoff equation (Equation (9)). (9) IC50=(Km+[S])/Km/Kic+[S]/Kiu.
• KM: Michaelis Menten constant (µM) • vmax: Maximal conversion rate of the uninhibited reaction (µM/min) • v0: Observed conversion rate at given substrate and inhibitor concentration (µM/min) • [S]: Substrate concentration • [I]: Inhibitor concentration • Kic: Inhibitor constant, reflecting the competitive inhibition in the equation (µM) • Kiu: Inhibitor constant, reflecting the uncompetitive inhibition in the equation (µM) • vmax^app: Calculated maximal conversion rate, when the Michaelis Menten equation is used on an inhibited curve (µM/min) • Km^app: Calculated Michaelis Menten constant, when the Michaelis Menten equation is used on an inhibited curve (µM) • IC50: Half maximal inhibitory concentration (inhibitor concentration needed to achieve 50% inhibition; it is dependent on the substrate concentration) (µM)
For data analyses and calculations, Origin 2018b (OriginLab, software extension Enzyme Kinetics) was used. The Levenberg−Marquardt algorithm procedure was chosen for iteration. All assays were performed in two independent replicates at different dates. Values are expressed in arithmetic means ± average deviation (AD). The statistical significance and differences between groups were analyzed by one-way analysis of variance (ANOVA), followed by Tukey’s test. Differences were considered significant when p < 0.05. Data were processed using Microsoft Excel® (2010).

For test [2], the target named is T1, α-amylase from porcine pancreas. Put plainly: Isothermal titration calorimetry, single injection, GalG2CNP conversion. In kind it is biochemical. The note with it: 100 µM inhibitor, 0.95 mM substrate, 37 °C. As to the method:
To evaluate the inhibitory strength of 100 µM anthocyanin-3-glucosides and black carrot anthocyanins, GalG2CNP conversion to CNP was monitored by the released heat. According to the previous study, ITC measurements were carried out in a single injection experiment set-up on a MICROCALTM PEAQ-ITC calorimeter (S/N MAL1188053, Malvern Panalytical Almelo, Netherlands). Following an equilibration time of 10 min, 1 µL α-amylase (1 µM in 50 mM MES^+ buffer) was added to 0.95 mM of the substrate with or without 100 µM of the phenolic inhibitor in the cell (Vcell = 0.207 mL). The temperature was maintained at 37 °C and the sample was stirred at 750 rpm throughout. The feedback/gain mode was set to high. The resulting heat profile was transformed and the conversion rate was plotted against the substrate concentration [S] by an origin routine template provided by Malvern® for Origin version 7.
A general note: In ITC the heat of successive injections is recorded.

A further test concerns the target human salivary α-amylase. More on the design: method as in PMID 26471548. The note with it: cited from earlier work.
The target of test [3] is porcine pancreatic α-amylase. Also noted: method as in doi:10.1016/j.jff.2015.11.042. The note with it: cited from earlier work.
Test [4] deals with T1, α-amylase from porcine pancreas. The conditions noted are these: cited from earlier work; for IC50: read-out: IC50 (Cheng−Prussoff, Equation (9)); for Kmapp / vmaxapp: Michaelis Menten fit.

Where “and” joins values, the source holds several entries; their conditions need not be identical. Equal entries are not always repeated. Entries after “also recorded” stand apart in the source; their conditions may differ. Where two headings read alike, the source gives them in different places. Marks after values point to notes of the source that are not given here.

A word on the IC50: it is the concentration at which inhibition is half-maximal.

Consider `OC[C@H]1O[C@@H](Oc2cc3c(O)cc(O)cc3[o+]c2-c2ccc(O)c(O)c2)[C@H](O[C@@H]2OC[C@@H](O)[C@H](O)[C@H]2O)[C@@H](O)[C@H]1O` [BC 2, cyanidin-3-xylosyl-galactoside], for which the “conversion rate (v0) / inhibitory effect in UV/Vis assay” value in test [1] is “minor inhibitory effect”. The “inhibitory strength by ITC (thermogram, Michaelis Menten plot)” value (from here on “inhibitory strength by ITC”) in test [2] is given as “no significant difference”.
Regarding `C[C@@H]1O[C@@H](OC[C@H]2O[C@@H](Oc3cc4c(O)cc(O)cc4[o+]c3-c3ccc(O)c(O)c3)[C@H](O)[C@@H](O)[C@@H]2O)[C@H](O)[C@H](O)[C@H]1O` [Cyd-3-rut], the values for the IC50 (on human salivary α-amylase; in test [3]) were 200 ± 24 µM and 31 ± 7 µM, respectively.
With `COc1cc(/C=C/C(=O)OC[C@H]2O[C@@H](OC[C@H]3O[C@@H](Oc4cc5c(O)cc(O)cc5[o+]c4-c4ccc(O)c(O)c4)[C@H](O[C@@H]4OC[C@@H](O)[C@H](O)[C@H]4O)[C@@H](O)[C@H]3O)[C@H](O)[C@@H](O)[C@@H]2O)ccc1O` [BC 4], the “conversion rate (v0) / inhibitory effect in UV/Vis assay” value in test [1] is “inhibits best”. In addition, in test [1] (from fits and Lineweaver−Burk / Hanes plots), the inhibition type result was “complete competitive inhibition; also recorded: predominantly competitive inhibition”. The Ki was ~20 µM and 20 µM in test [1] (Competitive Inhibition (Equation (5)), rough estimation, read-out: Kic); 98 ± 139 µM in test [1] (Mixed Inhibition (Equation (4)), read-out: Kiu); 23 ± 3 µM in test [1] (Mixed Inhibition (Equation (4)), rough estimation, read-out: Kic). The “inhibitory strength by ITC” value in test [2] is “significantly stronger inhibition of BC 4 compared to the non-acylated BC 2 and Cyd-3-glc”.
As to `COc1cc(-c2[o+]c3cc(O)cc(O)c3cc2O[C@@H]2O[C@H](CO)[C@@H](O)[C@H](O)[C@H]2O)cc(OC)c1O` [Mlv-glc, malvidin-3-glucoside], the “inhibitory strength by ITC” value in test [2] was “Mlv-3-glc > Cyd-3-glc > Dpd-3-glc~Peo-3-glc”. Also, the Kic/Kiu in test [4] ((i) global fit, Equation (4)) is given as 0.32 ± 0.07 ^a; in test [4] ((ii) independent fit, Equations (7) and (8)), 0.58 ± 0.35 ^a. The Ki in test [4] ((i) global fit, mixed inhibition Equation (4), read-out: Kic) was 44 ± 4 µM; in test [4] ((i) global fit, mixed inhibition Equation (4), read-out: Kiu), 143 ± 44 µM; in test [4] ((ii) independent Michaelis Menten fit, Equation (7), read-out: Kic) it was 69 ± 17 µM; in test [4] ((ii) independent Michaelis Menten fit, Equation (8), read-out: Kiu) it was 147 ± 50 µM; in test [4] (from apparent values, inhibitor c 25 µM, read-out: Kic), 74 ± 1 µM; in test [4] (from apparent values, inhibitor c 25 µM, read-out: Kiu) it was 150 ± 14 µM. The Ki is 36 ± 6 µM in test [4] (from apparent values, inhibitor c 50 µM, read-out: Kic); 159 ± 66 µM in test [4] (from apparent values, inhibitor c 50 µM, read-out: Kiu); 139 µM in test [4] (from apparent values, inhibitor c 12,5 µM, read-out: Kic); 84 µM in test [4] (from apparent values, inhibitor c 12,5 µM, read-out: Kiu); 83 ± 52 µM in test [4] (mean over inhibitor c 12,5, 25, 50 µM (Supplementary 2), read-out: Kic mean ± SD); 131 ± 41 µM in test [4] (mean over inhibitor c 12,5, 25, 50 µM (Supplementary 2), read-out: Kiu mean ± SD). The IC50 in test [4] ((i) global fit, [S] 10 µM) is 46 ± 4 µM; in test [4] ((i) global fit, [S] 100 µM), 58 ± 7 µM; in test [4] ((i) global fit, [S] 10^3 µM), 106 ± 24 µM; in test [4] ((i) global fit, [S] 10^6 µM), 143 ± 44 µM; in test [4] ((ii) independent fit, [S] 10 µM), 71 ± 16 µM; in test [4] ((ii) independent fit, [S] 100 µM), 83 ± 10 µM. In addition, the IC50 was 121 ± 21 µM in test [4] ((ii) independent fit, [S] 10^3 µM); 147 ± 50 µM in test [4] ((ii) independent fit, [S] 10^6 µM); 675 ± 73 µM at human salivary α-amylase. For the same molecule, the Kmapp is reported as 216 ± 3 µM in test [4] (inhibitor c 25 µM), 337 ± 4 µM in test [4] (inhibitor c 50 µM) and 194 ± 22 µM in test [4] (inhibitor c 12,5 µM). Moreover, the vmaxapp in test [4] (inhibitor c 25 µM) was 0.67 ± 0.16 µM/min; in test [4] (inhibitor c 50 µM), 0.60 ± 0.20 µM/min; in test [4] (inhibitor c 12,5 µM) it was 0.74 ± 0.24 µM/min. The inhibition type result in the test with human salivary α-amylase was “competitive inhibition type”.
